System: FeCl3-induced occlusive thrombus in rat carotid artery
Assay: Rat model of FeCl3-induced platelet-dependent arterial thrombosis
Format: in vivo
Conditions: FeCl3 model of arterial thrombosis in rats
From the text: Rat Model of FeCl3-induced Platelet-dependent Arterial Thrombosis
Kurz, K. D., Main, B. W., and Sandusky, G. E., Thromb. […] In this model a platelet-rich, occlusive thrombus is formed in a segment of the rat carotid artery treated locally with a fresh solution of FeCl3 absorbed to a piece of filter paper. The FeCl3 is thought to diffuse into the treated segment of artery and cause de-endothelialization of the affected vessel surface. […] The effect of a test compound on the incidence of occlusive thrombus formation following the application of the FeCl3 is monitored by ultrasonic flowtometry and is used as the primary end point. The use of flowtometry to measure carotid artery blood flow, is a modification of the original procedure in which thermal detection of clot formation was employed. Kurz, K. D., Main, B. W., and Sandusky, G. E., Thromb.
Male Harlan Sprague Dawley rats (420-450 g) were acclimated at least 72 hours prior to use and fasted for 12 hours prior to surgery with free access to water. The animals were prepared, anesthetized with Nembutal followed by the insertion of catheters for blood pressure monitoring, drug and anesthesia delivery. The left carotid artery was isolated by making a midline cervical incision followed by blunt dissection and spreading techniques to separate a 2 cm segment of the vessel from the carotid sheath. A silk suture is inserted under the proximal and distal ends of the isolated vessel to provide clearance for the placement of a ultrasonic flow probe (Transonic) around the proximal end of the vessel. The probe is then secured with a stationary arm.
The test compound was administered as a single intravenous bolus at the doses outlined in Table 4 after placement of the flow probe and 5 minutes prior to the thrombogenic stimulus. At t=0, a 3 mm diameter piece of filter paper (Whatman #3) soaked with 10 microliters of a 35% solution of fresh FeCl3 (made up in water) was applied the segment of isolated carotid artery distal to the flow probe. Blood pressure, blood flow, heart rate, and respiration were monitored for 60 minutes.
The incidence of occlusion (defined as the attainment of zero blood flow) was recorded as the primary end point.
This allows a direct comparison of the antithrombotic efficacy of [3-[(benzylsulfonyl)amino]-2-oxo-1,2-dihydropyridyl]acetyl-L-argininal, with other antithrombotic agents which have also been evaluated in this model as described above. Table 5 lists the ED50 values for several well known anticoagulant agents in this model compared to [3-[(benzylsulfonyl)amino]-2-oxo-1,2-dihydropyridyl]acetyl-L-argininal.

Hirulog ™ [reference compound]
ED50 for thrombus prevention (dose that prevents complete thrombotic occlusion in 50% of animals): 3.0 mg/kg
